Values of other authors, collected in patent US20030003095A1, “Activated carbon for preventing pregnancy and sexually transmitted disease” (The Procter & Gamble Company, priority 2002, published 2003).

Conditions: stated in words, no test described

| Molecule | water solubility |
| --- | --- |
| N=C(NCCCCCCNC(=N)NC(=N)Nc1ccc(Cl)cc1)NC(=N)Nc1ccc(Cl)cc1.O=C(O)[C@H](O)[C@@H](O)[C@H](O)[C@H](O)CO.O=C(O)[C@H](O)[C@@H](O)[C@H](O)[C@H](O)CO [chlorhexidene digluconate] | water-soluble |
| Oc1cc(Cl)ccc1Oc1ccc(Cl)cc1Cl [triclosan] | water insoluble |
| nonoxynol-9 | slightly water soluble |
